Measurements from patent publication US20100190724A1, “USE OF MELANOCYTE-STIMULATING HORMONE RELEASE-INHIBITING FACTOR AS A THERAPEUTIC AGENT IN THE TREATMENT OF PSEUDOMONAS AERUGINOSA INFECTION” (priority 2007, published 2010).
Where a SMILES comes first, the peptide text is derived from it.

Tested on: drug-resistant Mycobacterium tuberculosis
Details: peptide 10 micrograms per ml, seven days

CC(C)C[C@H](NC(=O)[C@@H]1CCCN1)C(=O)NCC(N)=O [MSHRIF, Pro-Leu-Gly-NH2] (H-Pro-Leu-Gly-NH2)
% inhibition: 0.0%
